Columns and labels:
[1] = In vivo pharmacokinetic study after oral (intragastric) administration in rats; settings: rat, oral solution, 1 mg/kg
Procedure: Naked physostigmine solution (1 mg/kg) or physostigmine-loaded RG 502 microparticles suspension (10% drug loading) were fed intragastrically into the overnight-fasted rats (weight-280g) via a rigid dosing gavage needle into the posterior of the rat pharynx, directly into the stomach. Immediately before administration of the tablets and solutions, a 300 μL sample of blood was taken at what was t=0 hrs (pre-dose), through the exposed catheter. Subsequent samples were drawn from the catheter at intervals over a period of 48 hours after drug administration. After each withdrawal, an equal volume of 0.9% normal saline was injected back into the blood stream to minimize loss of body fluid. Water and food were available ad libitum in the metabolic cages. Each 300 μl volume of blood was collected in heparinised microcentrifuge tubes and centrifuged under 3000 g for 5 minutes at 4° C. to obtain the plasma. All plasma samples were stored at −70° C. in fresh heparinised microcentrifuge tubes. Physostigmine is extracted immediately from it prior to analysis by high performance liquid chromatography (HPLC) described by Zhao et al (2003) Journal of Chromatography B 784- 323-329). The WinNonlin® Version 3.2 (Pharsight Corporation, USA) was used to calculate the pharmacokinetic parameters based on the non-compartment model.

[2] = in vitro medium, 37° C., cited from earlier work
[3] = K. Walter et al. (1995); cited from earlier work

For `CNC(=O)Oc1ccc2c(c1)[C@]1(C)CCN(C)[C@@H]1N2C` [physostigmine, Physostigmine], which Tmax ([1]; plasma) is on record?
The Tmax was 40.8 min.

What about the AUC ([1]; plasma, read-out: AUC (hr*μg/mL), Mean) of the same compound?
The AUC was 0.77 µg·h/mL.

What about the Cmax ([1]; plasma, read-out: Cmax (μg/mL), Mean) of the same compound?
The Cmax was 0.57 µg/mL.

What about the half-life ([1]; plasma, read-out: Half life (hr), Mean (converted)) of the same compound?
Its half-life is 1.16 h.

And the “Cl (mL/hr/kg), Mean” value [1]?
Its value is 998.86 mL/h/kg.

And the “Vd (mL/kg), Mean” value [1]?
Its value is 1584.37 mL/kg.

And the physostigmine degraded ([2]; in 6 days)?
Its physostigmine degraded is “about 40%”.

And the physostigmine degradation rate [2]?
Its physostigmine degradation rate is 7 % per day.

What about the elimination half-life [3] of the same compound?
Its elimination half-life is 12 to 40 min.

Source: patent US20050013869A1, “Sustained release formulation for carbamates and a method therefor” (priority 2003, published 2005)
